Results taken from ChEMBL document CHEMBL1132853, “Design and synthesis of highly potent fumagillin analogues from homology modeling for a human MetAP-2” (Bioorg Med Chem Lett, 2000).
≈ marks a conversion by molar mass, not a printed value.

Columns and labels:
[1] = system: EL4; assay: Tested in vitro for its ability to inhibit cell proliferation of lymphoma EL-4 cells measured […] by MTT method; assay type: functional, cell-based, Mus musculus
[2] = system: CPAE; assay: Tested in vitro for its ability to inhibit cell proliferation of calf pulmonary artery endothelial cells measured […] by SRB method; assay type: functional, cell-based, Bos taurus
[3] = system: P388; assay: Tested in vitro for its ability to inhibit cell proliferation of murine leukemia P388D1 cells measured […] by MTT method; assay type: functional, cell-based; settings: Mus musculus
[4] = Mus musculus, EL4, read-out: IC50
[5] = Bos taurus, CPAE, Artery, read-out: IC50

Row | SMILES | IC50 [3] [ng/mL] | IC50 [1, 4] [ng/mL] | IC50 [2, 5] [ng/mL] | IC50 ([1]; el4) [ng/mL] | IC50 ([2]; cpae) [ng/mL]
1 | COc1ccc(COC(=O)O[C@@H]2CC[C@]3(CO3)[C@@H]([C@@]3(C)O[C@@H]3CC=C(C)C)[C@@H]2OC)cc1 | – | 42 (≈ 94.1 nM) | 18 (≈ 40.3 nM) | – | –
2 | COc1ccc(CCOC(=O)O[C@@H]2CC[C@]3(CO3)[C@@H]([C@@]3(C)O[C@@H]3CC=C(C)C)[C@@H]2OC)cc1 | – | 153 (≈ 332 nM) | 2.3 (≈ 4.99 nM) | – | –
3 | COc1ccc(/C=C\C(=O)O[C@@H]2CC[C@]3(CO3)[C@@H]([C@@]3(C)O[C@@H]3CC=C(C)C)[C@@H]2OC)cc1 | – | 12 (≈ 27.1 nM) | 24 (≈ 54.2 nM) | – | –
4 | CO[C@@H]1[C@H](O)CC[C@]2(CO2)[C@H]1[C@@]1(C)O[C@@H]1CC=C(C)C | > 10 | 5.16 (≈ 18.3 nM) | 15 (≈ 53.1 nM) | – | –
5 | COc1cc(CCC(=O)O[C@@H]2CC[C@]3(CO3)[C@@H]([C@@]3(C)O[C@@H]3CC=C(C)C)[C@@H]2OC)cc(OC)c1OC | – | 36 (≈ 71.3 nM) | 44 (≈ 87.2 nM) | – | –
6 | COc1cc(/C=C/C(=O)O[C@@H]2CC[C@]3(CO3)[C@@H]([C@@]3(C)O[C@@H]3CC=C(C)C)[C@@H]2OC)cc(OC)c1OC | > 1 | – | – | 0.00015 (≈ 0.000298 nM) | 0.00003 (≈ 5.97e-05 nM)
7 | CO[C@@H]1[C@H](OC(=S)SCc2ccccc2)CC[C@]2(CO2)[C@H]1[C@@]1(C)O[C@@H]1CC=C(C)C | – | 14 (≈ 31.2 nM) | 42 (≈ 93.6 nM) | – | –
8 | COc1ccc(CCCC(=O)O[C@@H]2CC[C@]3(CO3)[C@@H]([C@@]3(C)O[C@@H]3CC=C(C)C)[C@@H]2OC)cc1 | – | 83 (≈ 181 nM) | 125 (≈ 273 nM) | – | –
9 | CO[C@@H]1[C@H](OC(=O)NC(=O)CCl)CC[C@]2(CO2)[C@H]1[C@@]1(C)O[C@@H]1CC=C(C)C [O-CHLOROACETYLCARBAMOYLFUMAGILLOL] | > 10 | 0.03 (≈ 0.0746 nM) | 0.04 (≈ 0.0995 nM) | – | –

Further lines, with some results ahead:

Row | IC50 [3] [ng/mL] | SMILES | IC50 [1, 4] [ng/mL] | IC50 [2, 5] [ng/mL] | IC50 ([1]; el4) [ng/mL] | IC50 ([2]; cpae) [ng/mL]
10 | > 1 | COc1ccc(CCNC(=O)O[C@@H]2CC[C@]3(CO3)[C@@H]([C@@]3(C)O[C@@H]3CC=C(C)C)[C@@H]2OC)cc1OC | 0.042 (≈ 0.0858 nM) | 0.044 (≈ 0.0899 nM) | – | –
11 | > 1 | CO[C@@H]1[C@H](OC(=O)/C=C/c2ccccc2)CC[C@]2(CO2)[C@H]1[C@@]1(C)O[C@@H]1CC=C(C)C | 0.05 (≈ 0.121 nM) | 0.046 (≈ 0.112 nM) | – | –
12 | > 1 | CO[C@@H]1[C@H](OC(=O)NCc2ccc(C(F)(F)F)cc2)CC[C@]2(CO2)[C@H]1[C@@]1(C)O[C@@H]1CC=C(C)C | 0.014 (≈ 0.029 nM) | 0.0054 (≈ 0.0112 nM) | – | –
13 | > 1 | CO[C@@H]1[C@H](OC(=O)OCc2ccc([N+](=O)[O-])cc2)CC[C@]2(CO2)[C@H]1[C@@]1(C)O[C@@H]1CC=C(C)C | 2.47 (≈ 5.35 nM) | 0.11 (≈ 0.238 nM) | – | –
14 | > 1 | COc1ccc(CNC(=O)O[C@@H]2CC[C@]3(CO3)[C@@H]([C@@]3(C)O[C@@H]3CC=C(C)C)[C@@H]2OC)cc1 | 0.042 (≈ 0.0943 nM) | 0.044 (≈ 0.0988 nM) | – | –
15 | > 1 | CO[C@@H]1[C@H](OC(=O)NCc2ccccc2)CC[C@]2(CO2)[C@H]1[C@@]1(C)O[C@@H]1CC=C(C)C | 0.01 (≈ 0.0241 nM) | 0.07 (≈ 0.168 nM) | – | –
16 | > 1 | COc1ccc(/C=C/C(=O)O[C@@H]2CC[C@]3(CO3)[C@@H]([C@@]3(C)O[C@@H]3CC=C(C)C)[C@@H]2OC)cc1 | – | – | 0.00019 (≈ 0.000429 nM) | 0.00006 (≈ 0.000136 nM)
17 | > 1 | C/C=C/C=C/C(=O)O[C@@H]1CC[C@]2(CO2)[C@@H]([C@@]2(C)O[C@@H]2CC=C(C)C)[C@@H]1OC | 5.05 (≈ 13.4 nM) | 12 (≈ 31.9 nM) | – | –
18 | > 1 | CO[C@@H]1[C@H](OC(=O)/C=C/C=C/C=C/C=C/C(=O)O)CC[C@]2(CO2)[C@H]1[C@@]1(C)O[C@@H]1CC=C(C)C [FUMAGILLIN] | 0.42 (≈ 0.916 nM) | 0.37 (≈ 0.807 nM) | – | –
